Active and inactive are the calls of the source. No cut-off for these calls is given here.
Legend:
[1] = biological target: T1, Protein cereblon/CREB-binding protein (Homo sapiens) (UniProt Q92793+Q96SW2); test: PROTAC activity at CRBN/HiBiT-tagged CBP in human HAP1 cells assessed as induction of CBP degradation by measuring degradation rate at 10 nM measured over 24 hrs by luminescence based analysis; type: cell-based
[2] = biological target: T1, Protein cereblon/CREB-binding protein (Homo sapiens); test: PROTAC activity at CRBN/HiBiT-tagged CBP in human HAP1 cells assessed as induction of CBP degradation by measuring degradation rate at 1000 nM measured over 24 hrs by luminescence based analysis; type: cell-based
[3] = biological target: T2, Protein cereblon/Histone acetyltransferase p300 (Homo sapiens) (UniProt Q09472+Q96SW2); test: PROTAC activity at CRBN/HiBiT-tagged p300 in human HAP1 cells assessed as induction of p300 degradation by measuring degradation rate at 10 nM measured over 24 hrs by luminescence based analysis; type: cell-based
T2 sequence (Q09472 2-2414 limits assumed): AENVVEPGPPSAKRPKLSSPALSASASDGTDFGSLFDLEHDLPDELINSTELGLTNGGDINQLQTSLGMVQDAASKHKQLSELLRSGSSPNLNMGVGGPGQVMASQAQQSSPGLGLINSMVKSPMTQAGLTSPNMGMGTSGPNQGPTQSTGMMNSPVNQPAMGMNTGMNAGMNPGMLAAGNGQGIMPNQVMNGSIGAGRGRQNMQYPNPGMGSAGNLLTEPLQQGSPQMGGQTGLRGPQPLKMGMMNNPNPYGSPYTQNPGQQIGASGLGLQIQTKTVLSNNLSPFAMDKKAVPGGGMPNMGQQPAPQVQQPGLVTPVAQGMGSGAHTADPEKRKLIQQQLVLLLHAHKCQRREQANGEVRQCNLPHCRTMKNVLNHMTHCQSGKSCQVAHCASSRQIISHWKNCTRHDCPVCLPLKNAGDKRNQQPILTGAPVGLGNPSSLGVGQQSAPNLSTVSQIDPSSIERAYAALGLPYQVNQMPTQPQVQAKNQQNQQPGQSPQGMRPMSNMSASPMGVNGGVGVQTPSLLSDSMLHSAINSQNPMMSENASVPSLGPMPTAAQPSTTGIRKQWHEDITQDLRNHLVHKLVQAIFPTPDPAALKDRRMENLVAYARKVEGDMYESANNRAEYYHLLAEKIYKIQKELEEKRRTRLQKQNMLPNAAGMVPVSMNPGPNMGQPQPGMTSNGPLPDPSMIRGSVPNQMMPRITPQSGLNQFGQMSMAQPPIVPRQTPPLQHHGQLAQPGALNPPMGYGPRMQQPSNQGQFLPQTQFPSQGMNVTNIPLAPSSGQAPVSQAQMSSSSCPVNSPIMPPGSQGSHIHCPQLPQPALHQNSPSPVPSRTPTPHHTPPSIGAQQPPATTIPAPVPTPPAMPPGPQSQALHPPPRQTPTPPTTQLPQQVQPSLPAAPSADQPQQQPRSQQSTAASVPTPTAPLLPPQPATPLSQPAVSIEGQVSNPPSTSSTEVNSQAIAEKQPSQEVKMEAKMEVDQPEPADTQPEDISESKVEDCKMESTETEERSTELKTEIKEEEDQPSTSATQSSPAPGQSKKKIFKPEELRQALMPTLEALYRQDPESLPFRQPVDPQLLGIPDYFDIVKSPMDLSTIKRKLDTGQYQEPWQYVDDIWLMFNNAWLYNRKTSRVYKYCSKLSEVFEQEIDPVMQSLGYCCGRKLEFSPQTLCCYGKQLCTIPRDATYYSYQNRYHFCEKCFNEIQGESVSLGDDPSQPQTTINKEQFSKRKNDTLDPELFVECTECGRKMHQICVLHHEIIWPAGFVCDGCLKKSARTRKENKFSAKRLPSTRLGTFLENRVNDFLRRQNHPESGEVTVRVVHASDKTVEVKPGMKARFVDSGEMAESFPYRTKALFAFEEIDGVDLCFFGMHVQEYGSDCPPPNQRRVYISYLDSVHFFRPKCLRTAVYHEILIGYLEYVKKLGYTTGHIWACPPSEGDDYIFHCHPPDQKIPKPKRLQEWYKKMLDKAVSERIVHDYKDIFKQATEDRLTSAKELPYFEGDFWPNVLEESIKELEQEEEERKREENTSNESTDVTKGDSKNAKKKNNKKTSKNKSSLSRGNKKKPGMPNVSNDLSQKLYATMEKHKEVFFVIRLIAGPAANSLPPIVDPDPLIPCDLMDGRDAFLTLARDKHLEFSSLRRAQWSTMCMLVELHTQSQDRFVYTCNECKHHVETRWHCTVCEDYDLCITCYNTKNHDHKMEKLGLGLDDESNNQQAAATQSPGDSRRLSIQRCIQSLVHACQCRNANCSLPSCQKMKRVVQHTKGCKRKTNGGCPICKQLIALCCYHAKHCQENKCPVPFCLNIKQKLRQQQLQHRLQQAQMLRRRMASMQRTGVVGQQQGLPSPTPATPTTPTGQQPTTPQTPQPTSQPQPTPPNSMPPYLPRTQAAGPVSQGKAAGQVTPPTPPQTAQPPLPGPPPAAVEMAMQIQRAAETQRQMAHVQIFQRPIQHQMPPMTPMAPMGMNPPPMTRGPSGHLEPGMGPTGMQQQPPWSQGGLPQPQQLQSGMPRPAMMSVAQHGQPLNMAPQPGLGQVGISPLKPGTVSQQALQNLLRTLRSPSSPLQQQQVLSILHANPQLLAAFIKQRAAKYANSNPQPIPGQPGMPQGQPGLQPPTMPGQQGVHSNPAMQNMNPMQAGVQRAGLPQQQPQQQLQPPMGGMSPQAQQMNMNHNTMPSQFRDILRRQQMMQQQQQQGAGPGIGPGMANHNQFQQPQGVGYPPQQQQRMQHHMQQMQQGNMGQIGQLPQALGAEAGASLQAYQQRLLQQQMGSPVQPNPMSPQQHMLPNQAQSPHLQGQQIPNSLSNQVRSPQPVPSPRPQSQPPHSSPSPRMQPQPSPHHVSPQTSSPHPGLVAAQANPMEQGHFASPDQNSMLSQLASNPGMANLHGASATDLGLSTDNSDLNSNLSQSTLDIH
T2 sequence (Q96SW2 whole entry partner): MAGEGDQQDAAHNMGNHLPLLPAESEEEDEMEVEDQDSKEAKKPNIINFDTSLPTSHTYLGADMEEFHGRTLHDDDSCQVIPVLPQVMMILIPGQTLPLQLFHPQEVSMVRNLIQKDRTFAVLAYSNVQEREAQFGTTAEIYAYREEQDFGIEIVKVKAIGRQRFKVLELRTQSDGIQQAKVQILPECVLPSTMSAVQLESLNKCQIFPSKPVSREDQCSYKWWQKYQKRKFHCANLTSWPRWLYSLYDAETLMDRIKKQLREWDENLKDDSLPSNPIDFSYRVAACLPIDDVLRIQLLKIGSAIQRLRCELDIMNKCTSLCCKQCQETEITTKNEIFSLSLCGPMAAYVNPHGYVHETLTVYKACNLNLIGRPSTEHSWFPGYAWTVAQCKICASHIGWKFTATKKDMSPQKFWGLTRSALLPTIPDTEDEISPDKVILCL

[4] = biological target: T1, Protein cereblon/CREB-binding protein (Homo sapiens); test: PROTAC activity at CRBN/HiBiT-tagged CBP in human HAP1 cells assessed as total cumulative degradation by measuring AUC at 0.1 nM measured over 24 hrs by luminescence based analysis; type: cell-based
[5] = biological target: Protein cereblon/Bromodomain-containing protein 4 (Homo sapiens) (UniProt O60885+Q96SW2); test: PROTAC activity at CRBN/HiBiT-tagged BRD4 in human HAP1 cells assessed as induction of BRD4 degradation measured over 24 hrs by luminescence based analysis; type: cell-based
Chain of Protein cereblon/Bromodomain-containing protein 4 (Homo sapiens) (Q96SW2 whole entry, looked up, other chains not shown): as the sequence (Q96SW2 whole entry partner) above

[6] = biological target: T1, Protein cereblon/CREB-binding protein (Homo sapiens); test: Binding affinity to recombinant CRBN/CBP bromodomain (unknown origin) assessed as ternary complex formation at 10 to 100 nM by Alphascreen-based proximity assay; type: protein assay; conditions: dose 10-100 nM
[7] = biological target: T1, Protein cereblon/CREB-binding protein (Homo sapiens); test: PROTAC activity at CRBN/HiBiT-tagged CBP in human HAP1 cells assessed as induction of CBP degradation by measuring degradation rate at 100 nM measured over 24 hrs by luminescence based analysis; type: cell-based
[8] = biological target: T1, Protein cereblon/CREB-binding protein (Homo sapiens); test: PROTAC activity at CRBN/HiBiT-tagged CBP in human HAP1 cells assessed as total cumulative degradation by measuring AUC at 1000 nM measured over 24 hrs by luminescence based analysis; type: cell-based
[9] = biological target: T2, Protein cereblon/Histone acetyltransferase p300 (Homo sapiens); test: PROTAC activity at CRBN/HiBiT-tagged p300 in human HAP1 cells assessed as total cumulative degradation by measuring AUC at 0.1 nM measured over 24 hrs by luminescence based analysis; type: cell-based
[10] = biological target: T2, Protein cereblon/Histone acetyltransferase p300 (Homo sapiens); test: PROTAC activity at CRBN/HiBiT-tagged p300 in human HAP1 cells assessed as total cumulative degradation by measuring AUC at 1 nM measured over 24 hrs by luminescence based analysis; type: cell-based
[11] = biological target: T2, Protein cereblon/Histone acetyltransferase p300 (Homo sapiens); test: PROTAC activity at CRBN/HiBiT-tagged p300 in human HAP1 cells assessed as induction of p300 degradation by measuring degradation rate at 100 nM measured over 24 hrs by luminescence based analysis; type: cell-based
[12] = biological target: T1, Protein cereblon/CREB-binding protein (Homo sapiens); test: PROTAC activity at CRBN/HiBiT-tagged CBP in human HAP1 cells assessed as induction of CBP degradation by measuring maximal efficacy at 10 nM measured over 24 hrs by luminescence based analysis relative to control; type: cell-based
[13] = biological target: T2, Protein cereblon/Histone acetyltransferase p300 (Homo sapiens); test: PROTAC activity at CRBN/HiBiT-tagged p300 in human HAP1 cells assessed as total cumulative degradation by measuring AUC at 0.01 nM measured over 24 hrs by luminescence based analysis; type: cell-based
[14] = biological target: T1, Protein cereblon/CREB-binding protein (Homo sapiens); test: PROTAC activity at CRBN/HiBiT-tagged CBP in human HAP1 cells assessed as total cumulative degradation by measuring AUC at 1 nM measured over 24 hrs by luminescence based analysis; type: cell-based
[15] = biological target: T1, Protein cereblon/CREB-binding protein (Homo sapiens); test: PROTAC activity at CRBN/HiBiT-tagged CBP in human HAP1 cells assessed as induction of CBP degradation by measuring maximal efficacy at 100 nM measured over 24 hrs by luminescence based analysis relative to control; type: cell-based
[16] = biological target: T2, Protein cereblon/Histone acetyltransferase p300 (Homo sapiens); test: PROTAC activity at CRBN/HiBiT-tagged p300 in human HAP1 cells assessed as induction of p300 degradation by measuring degradation rate at 1000 nM measured over 24 hrs by luminescence based analysis; type: cell-based
[17] = biological target: T2, Protein cereblon/Histone acetyltransferase p300 (Homo sapiens); test: PROTAC activity at CRBN/HiBiT-tagged p300 in human HAP1 cells assessed as total cumulative degradation by measuring AUC at 100 nM measured over 24 hrs by luminescence based analysis; type: cell-based
[18] = biological target: T2, Protein cereblon/Histone acetyltransferase p300 (Homo sapiens); test: PROTAC activity at CRBN/HiBiT-tagged p300 in human HAP1 cells assessed as total cumulative degradation by measuring AUC at 1000 nM measured over 24 hrs by luminescence based analysis; type: cell-based
[19] = biological target: T1, Protein cereblon/CREB-binding protein (Homo sapiens); test: PROTAC activity at CRBN/HiBiT-tagged CBP in human HAP1 cells assessed as total cumulative degradation by measuring AUC at 10 nM measured over 24 hrs by luminescence based analysis; type: cell-based
[20] = biological target: T2, Protein cereblon/Histone acetyltransferase p300 (Homo sapiens); test: PROTAC activity at CRBN/HiBiT-tagged p300 in human HAP1 cells assessed as total cumulative degradation by measuring AUC at 10 nM measured over 24 hrs by luminescence based analysis; type: cell-based
[21] = biological target: T1, Protein cereblon/CREB-binding protein (Homo sapiens); test: PROTAC activity at CRBN/HiBiT-tagged CBP in human HAP1 cells assessed as total cumulative degradation by measuring AUC at 0.01 nM measured over 24 hrs by luminescence based analysis; type: cell-based
[22] = biological target: T2, Protein cereblon/Histone acetyltransferase p300 (Homo sapiens); test: PROTAC activity at CRBN/HiBiT-tagged p300 in human HAP1 cells assessed as induction of p300 degradation by measuring maximal efficacy at 1000 nM measured over 24 hrs by luminescence based analysis relative to control; type: cell-based
[23] = biological target: T2, Protein cereblon/Histone acetyltransferase p300 (Homo sapiens); test: PROTAC activity at CRBN/HiBiT-tagged p300 in human HAP1 cells assessed as induction of p300 degradation by measuring maximal efficacy at 10 nM measured over 24 hrs by luminescence based analysis relative to control; type: cell-based
[24] = biological target: T1, Protein cereblon/CREB-binding protein (Homo sapiens); test: PROTAC activity at CRBN/HiBiT-tagged CBP in human HAP1 cells assessed as total cumulative degradation by measuring AUC at 100 nM measured over 24 hrs by luminescence based analysis; type: cell-based
[25] = biological target: T1, Protein cereblon/CREB-binding protein (Homo sapiens); test: PROTAC activity at CRBN/HiBiT-tagged CBP in human HAP1 cells assessed as induction of CBP degradation by measuring maximal efficacy at 1000 nM measured over 24 hrs by luminescence based analysis relative to control; type: cell-based
[26] = biological target: T2, Protein cereblon/Histone acetyltransferase p300 (Homo sapiens); test: PROTAC activity at CRBN/HiBiT-tagged p300 in human HAP1 cells assessed as induction of p300 degradation by measuring maximal efficacy at 100 nM measured over 24 hrs by luminescence based analysis relative to control; type: cell-based
[27] = biological target: T2, Protein cereblon/Histone acetyltransferase p300 (Homo sapiens); test: Binding affinity to recombinant CRBN/p300 bromodomain (unknown origin) assessed as ternary complex formation at 10 to 100 nM by Alphascreen-based proximity assay; type: protein assay; conditions: dose 10-100 nM

SMILES	Activity [2] [h⁻¹]	Activity [3] [h⁻¹]	AUC [4]	Activity [5]	Activity [6]	AUC [8]	AUC [9]	AUC [10]	Activity [11] [h⁻¹]	AUC [13]	AUC [14]	Activity [16] [h⁻¹]	AUC [17]	AUC [18]	AUC [19]	AUC [20]	AUC [21]	Emax [22] [%]	AUC [24]	Activity [27]	other results
CNC(=O)N1CCc2c(c(N3CCCc4cc(-c5cnn(CC(=O)NCCOCCOCCOCCOCCNc6ccc7c(c6)C(=O)N(C6CCC(=O)NC6=O)C7=O)c5)c(C(F)F)cc43)nn2C2CCOCC2)C1 (stereo not given)	0.12	0.03	23.4	inactive	Active	17.8	26.8	25.8	0.11	28	23.3	0.11	16.8	15.8	22.2	21.3	22.4	55	18	Active	Activity [1]: 9.7 10^-3/hr; Activity [7]: 0.11 h⁻¹; Emax [12]: 22%; Emax [15]: 42%; Emax [23]: 61%; Emax [25]: 42%; Emax [26]: 51%
CNC(=O)N1CCc2c(c(N3CCN(C(=O)NCCOCCNc4ccc5c(c4)C(=O)N(C4CCC(=O)NC4=O)C5=O)c4cc(-c5cnn(C)c5)c(C(F)(F)F)cc43)nn2C2CCOCC2)C1 (stereo not given)	0.036		25	inactive		21.4	27.5	26.9		27.5	23.9	0.02	26.2	22.3	24.9	27	23.4	20	23.6		Emax [25]: 26%
CNC(=O)N1CCc2c(c(N3CCCc4cc(-c5cnn(CC(=O)NCCOCCOCCOCCOCCOCCOCCNc6ccc7c(c6)C(=O)N(C6CCC(=O)NC6=O)C7=O)c5)c(C(F)F)cc43)nn2C2CCOCC2)C1 (stereo not given)		0.006	22.8	inactive	Active	25	27	26.1	0.02	27.6	23.6		22.4	26.1	23	22.7	21.6		23.2	Active	Emax [23]: 19%; Emax [26]: 21%
CNC(=O)N1CCc2c(c(N3CCN(C(=O)NCCOCCOCCOCCOCCNc4ccc5c(c4)C(=O)N(C4CCC(=O)NC4=O)C5=O)c4cc(-c5cnn(C)c5)c(C(F)(F)F)cc43)nn2C2CCOCC2)C1 (stereo not given)			24.4	inactive	Active	24.2	27.3	27.7		27.2	24.7	0.009	25.5	22.1	25.1	26.9	24.1	26	24.6	Active	
